Assays:
Human recombinant PKCε = target: T1, Human recombinant PKCε (Homo sapiens, UniProt Q02156); assay: Protein Kinase Cε Assay; format: biochemical
T1 construct: purchased Oxford Biomedical Research
T1 sequence (Q02156 1-737): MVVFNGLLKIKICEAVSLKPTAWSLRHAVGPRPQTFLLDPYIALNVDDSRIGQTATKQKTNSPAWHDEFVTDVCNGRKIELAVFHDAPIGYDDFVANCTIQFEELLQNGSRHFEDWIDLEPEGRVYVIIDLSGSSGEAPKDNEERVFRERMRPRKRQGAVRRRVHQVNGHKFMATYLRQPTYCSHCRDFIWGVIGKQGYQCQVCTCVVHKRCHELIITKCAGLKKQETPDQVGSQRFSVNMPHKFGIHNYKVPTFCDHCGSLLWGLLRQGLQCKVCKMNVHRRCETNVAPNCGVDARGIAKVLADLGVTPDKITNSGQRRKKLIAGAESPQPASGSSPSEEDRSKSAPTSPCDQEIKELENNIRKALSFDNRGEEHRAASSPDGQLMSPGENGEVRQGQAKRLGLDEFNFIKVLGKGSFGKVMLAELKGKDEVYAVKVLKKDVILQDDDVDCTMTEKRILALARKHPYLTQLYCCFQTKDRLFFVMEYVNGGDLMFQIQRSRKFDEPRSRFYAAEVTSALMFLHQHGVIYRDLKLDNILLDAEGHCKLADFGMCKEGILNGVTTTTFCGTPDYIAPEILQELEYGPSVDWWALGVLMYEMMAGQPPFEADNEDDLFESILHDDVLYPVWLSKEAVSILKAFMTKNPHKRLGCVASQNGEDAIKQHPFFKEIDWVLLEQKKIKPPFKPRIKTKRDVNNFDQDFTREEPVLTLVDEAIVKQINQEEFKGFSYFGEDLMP
Method: (§1) The compounds of formula I are tested for their activity on different PKC isoforms according to a published method (D. Geiges et al. Biochem. Pharmacol. 1997; 53:865-875) The assay is performed in a 96-well polypropylene microtiterplate (Costar 3794) that has been previously siliconized with Sigmacote (Sigma SL-2). The reaction mixture (50 μl) contains 10 μl of the relevant PKC isozyme together with 25 μl of the test compound and 15 μl of a mix solution that contains 200 μg/ml protamine sulfate, 10 mM Mg(NO3)2, 10 μM ATP (Boehringer 519987) and 3750 Bq of ^33P-ATP (Hartmann Analytic SFC301, 110TBq/mmol) in 20 mM Tris-buffer pH 7.4+0.1% BSA. Incubation is performed for 15 min at 32° C. in a microtiterplate shaking incubator (Biolabo Scientific Instruments). Reaction is stopped by adding 10 μl of 0.5 M Na2EDTA, pH 7.4. 50 μl of mixture are pipetted onto a pre-wetted phosphocellulose paper (Whatmann 3698-915) under gentle pressure. Non-incorporated ATP is washed away with 100 μl bi-dist H2O. The paper is washed twice in 0.5% H3PO4 for 15 min followed by 5 min in EtOH. Thereafter the paper is dryed and placed in an omnifilter (Packard 6005219), and overlayed with 10 μl/well of Microscint-O (Packard 6013611) before counting in a Topcount radioactivity counter (Packard). […] IC50 values are calculated from the graph by sigmoidal curve fitting. […]

Human recombinant PKCθ = Human recombinant PKCθ (Homo sapiens, UniProt Q04759); assay: Protein Kinase C θ Assay; format: biochemical
Human recombinant PKCθ, sequence (Q04759 whole entry): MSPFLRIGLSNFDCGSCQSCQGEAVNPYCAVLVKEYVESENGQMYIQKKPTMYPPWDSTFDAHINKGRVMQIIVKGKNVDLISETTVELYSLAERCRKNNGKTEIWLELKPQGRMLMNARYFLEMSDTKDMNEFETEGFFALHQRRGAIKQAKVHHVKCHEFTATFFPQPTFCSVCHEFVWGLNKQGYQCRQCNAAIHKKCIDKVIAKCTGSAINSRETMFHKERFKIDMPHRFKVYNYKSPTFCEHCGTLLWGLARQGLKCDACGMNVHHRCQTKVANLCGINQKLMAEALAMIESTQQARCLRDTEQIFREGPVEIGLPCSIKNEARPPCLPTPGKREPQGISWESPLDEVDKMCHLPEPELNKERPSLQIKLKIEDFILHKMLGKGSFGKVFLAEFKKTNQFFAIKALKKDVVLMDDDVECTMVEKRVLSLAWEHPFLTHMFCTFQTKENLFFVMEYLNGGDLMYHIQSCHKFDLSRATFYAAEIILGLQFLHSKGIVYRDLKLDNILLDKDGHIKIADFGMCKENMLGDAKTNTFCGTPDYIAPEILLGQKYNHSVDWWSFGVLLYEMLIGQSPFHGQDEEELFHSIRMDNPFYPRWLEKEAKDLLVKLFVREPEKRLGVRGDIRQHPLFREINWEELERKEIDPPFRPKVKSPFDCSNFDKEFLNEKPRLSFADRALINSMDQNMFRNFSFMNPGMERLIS
Method: as §1

IC50 (Human recombinant PKCε): 18 nM
IC50 (Human recombinant PKCθ): 12.1 nM
Structure (SMILES): Cc1cccc2c(C3=C(c4nc(N5CCNC6(CC6)C5)cc5ccccc45)C(=O)NC3=O)c[nH]c12 [Example 69, 3-[3-(4,7-Diaza-spiro[2.5]oct-7-yl)-isoquinolin-1-yl]-4-(7-methyl-1H-indol-3-yl)-pyrrole-2,5-dione]

From US7534808B2, “Indolylmaleimide derivatives” (priority 2002, dated 2009)
